# Laboratory results reported in patent US6380183B1, “Treatment of diseases involving cyst formation” (Scios, Inc., priority 1998, dated 2002).
# How the values were obtained:
# [1] = tested on: guinea pig heart preparation; conditions: Ro5-4864 effects reversed by PK 11195; cited from earlier work
# human ADPKD cells = test: Promega Cell titer 96 MTT proliferation assay on human ADPKD cells; format: cell-based
# Description: In this experiment, the effect of concentrations from […] to 10^−6 M of the known PTBR agonist, Ro5-4864 on the rate of proliferation of human autosomal dominant polycystic kidnay disease (ADPKD) cells was examined.
# Epithelial cells from human ADPKD kidneys have been cultured from the domes of cysts and maintained in primary culture through several passages.
# The rate of cell proliferation was determined using the Promega Cell titer 96 MTT Assay method. This assay is a modification of that described by Mosmann T 1983 J Immunol Meth. 65, 55. […] The relation between cell number and O.D. was linear, and r^2 was >0.98. To determine the effect of agonists on the rate of proliferation, approximately 4000 cells were seeded into individual chambers of a 96-well plate. The cells were incubated initially in DME/F12 medium supplemented only with penicillin, streptomycin, ITS and 1% FBS. After 24 hours,.the FBS was reduced to 0.002% (ITS deleted) to arrest growth. This small amount of serum was needed to potentiate cell attachment to the plastic surface. The human ADPKD cells were then cultured for 48 hours, after adding the cAMP (a stimulator of cell proliferation) at a concentration of 100 μM. A control and forskolin group were examined as well. Preliminary studies determined that growth was sustained over this entire interval.
# Thereafter the effect of a range of concentrations from 10^−12 to 10^−6 M of the known PTBR agonist, Ro5-4864 on the rate of proliferation of […] pretreated with cAMP or not treated (baseline proliferation) was examined. The results are graphically illustrated in FIG. 6. Each data set shown in FIG. 6 is mean, and was obtained from six determinations. Accordingly, the results are highly statistically significant.
# human atrial strips = conditions: not antagonized by PK 11195; cited from earlier work
# [2] = tested on: isolated working rat heart; conditions: isolated working rat heart model; cited from earlier work
# Langendorf rat heart = conditions: cited from earlier work
# polycystic cpk mice = conditions: cited from earlier work
smiles,measurement,setting,value
O=C1CN=C(c2ccccc2Cl)c2cc([N+](=O)[O-])ccc2N1 [clonazepam],duration of intracellular action potential and contractility,[1],ineffective
CN1C(=O)CN=C(c2ccc(Cl)cc2)c2cc(Cl)ccc21 [Ro5-4864],visual observation of the cells: growth arrest versus cell killing,human ADPKD cells; human ADPKD cells,arresting cell growth and not be killing the cells
same,basal cell proliferation,"human ADPKD cells; human ADPKD cells not treated with cAMP (baseline), all concentrations examined, 10^-12 to 10^-6 M, MTT O.D., six determinations",blocked
same,cAMP stimulated cell proliferation,"human ADPKD cells; human ADPKD cells pretreated with 100 μM cAMP, all concentrations examined, 10^-12 to 10^-6 M, MTT O.D., six determinations",blocked
same,depressant effect on the contraction amplitude (negative inotropic effect),human atrial strips,20%
same,cardiac function,[2],depress cardiac function
same,heart rate and left ventricular contractility,Langendorf rat heart; isolated perfused Langendorf rat heart,without affecting
same,coronary flow,"Langendorf rat heart; isolated perfused Langendorf rat heart, effect not antagonized by PK 11195",increase coronary flow
same,duration of intracellular action potential and contractility,[1],decreased
CN1C(=O)CN=C(c2ccccc2)c2cc(Cl)ccc21 [diazepam],contractile force,Langendorf rat heart; Langendorf rat heart,increased contractile force
same,duration of intracellular action potential and contractility,[1],less effective
"CCC(C)N(C)C(=O)c1cc2ccccc2c(-c2ccccc2Cl)n1 (centres unmarked) [PK 11195, 1-(2-chlorophenyl)-N-methyl-N-(1-methylpropyl)-3-isoquinoline carboxamide]",cardiac function,[2],depress cardiac function
CC(=O)O[C@H]1C(=O)[C@@]2(C)[C@H]([C@H](OC(=O)c3ccccc3)[C@]3(O)C[C@H](OC(=O)[C@H](O)[C@@H](NC(=O)c4ccccc4)c4ccccc4)C(C)=C1C3(C)C)[C@]1(OC(C)=O)CO[C@@H]1C[C@@H]2O [taxol],progression of PKD,polycystic cpk mice,inhibit the progression of PKD
same,survival,polycystic cpk mice,prolongs the survival
